From article PMC12974487, “Inhibition of FicD-mediated AMPylation and deAMPylation by isoprenoid diphosphates” (Proceedings of the National Academy of Sciences of the …, 2026) come the findings set out here.

The target in assay [1] is T1, FicD^L258D (Homo sapiens, UniProt Q9BVA6, L258D).
T1 construct: soluble ER luminal domain (residues 105 to 458) of wild-type human FicD and three mutants; 6xHis-Sumo (N, cleaved yes); made in house; host or cells: Rosetta(DE3) E. coli
T1 sequence (Q9BVA6 105-458 L258D): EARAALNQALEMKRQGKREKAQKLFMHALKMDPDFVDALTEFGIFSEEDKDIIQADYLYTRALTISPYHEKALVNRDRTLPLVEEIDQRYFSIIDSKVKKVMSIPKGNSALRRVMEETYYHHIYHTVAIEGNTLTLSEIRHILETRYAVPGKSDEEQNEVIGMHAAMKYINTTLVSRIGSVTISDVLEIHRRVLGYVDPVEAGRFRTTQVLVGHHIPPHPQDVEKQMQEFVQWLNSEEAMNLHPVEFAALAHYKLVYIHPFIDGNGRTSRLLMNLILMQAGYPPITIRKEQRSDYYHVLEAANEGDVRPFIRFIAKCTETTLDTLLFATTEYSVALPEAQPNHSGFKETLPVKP
Briefly: Isothermal titration calorimetry (ITC) with Δ104hFicD^L258D. Type of assay: binding. As to conditions: 4 mM MgCl2, 20 °C, 1σ error interval in parenthesis. The text has this:
To further support this notion, we used Isothermal Titration Calorimetry (ITC) to determine the Kd of FPP binding. […] In these experiments, the interaction between FPP and Mg^2+ generated endothermic peaks that interfered with detecting the interaction between FPP, Mg^2+, and FicD (Fig. 3, Upper). The stoichiometry of FPP binding to FicD was consistently <0.85, which may indicate that Mg^2+ was not saturating. Because the endothermic interaction between Mg^2+ and FPP limited the quantity of MgCl2 we could add, the measured Kd could be larger than the true value.
Fig. 3. ITC with FicD and Farnesyl-pyrophosphate. Representative ITC thermogram for FPP binding to Δ104hFicD^L258D (Upper). […] Dissociation constants (Kd) of individual replicates and global fitting of triplicate isotherms are reported with 1σ error intervals in parenthesis. TEXT PRINTED IN THE PICTURE: no label printed: Kd (nM): 32.3 (15.6, 54.9) (Replicate 1); Kd (nM): 25.6 (10.1, 47.7) (Replicate 2); Kd (nM): 45.2 (29.4, 68.8) (Replicate 3); Kd (nM): 60.3 (23.1, 126.3) (Global) DOUBTS OF THE COPYIST ABOUT THIS PICTURE: The picture prints no substance label; the table rows are replicates and a global fit of one measurement, so all four Kd values are given under one unlabeled substance. […]
Isothermal Titration Calorimetry
Proteins were dialyzed against 25mM HEPES pH 7.4/100mM KCl/10% glycerol prior to titration.
Dialyzed proteins were then spun down at 21,000G for 15 minutes at 4C to remove trace insoluble material. The protein concentration was measured spectrophotometrically and then diluted to working concentration with 25mM HEPES pH 7.4/100mM KCl/10% glycerol. MgCl2 was added to proteins to a final concentration of 4mM. ITC experiments were performed in a Micro-Cal PEAQ-ITC (Malvern Panalytical, Worcestershire, UK) calorimeter with a stirred 206.2 μL reaction cell held at 20 °C. 250μM FPP was titrated into 25uM Δ104hFicL258D with 750rpm stirring. The first injection was 0.5 μL, followed by twenty 1.9 μL injections. ITC data were integrated and baseline corrected using NITPIC 2.1.5 (10, 11). Integrated data was globally analyzed in SEDPHAT 15.b (12) using a model considering a single class of binding sites. […]
10% Lithium dodecyl sulfate, 50% glycerol, 50mM DTT, 0.05% Bromophenol blue) and then heated […]
For deAMPylation assays with FicD and BiP, Δ26hBiPT229A was in-vitro AMPylated by […]
5mM MgCl2, 500uM ATP, 0.5% CHAPS, 1mM DTT. After one hour of incubation at 30-37C, the entire reaction mix was transferred into an Amicon 0.5mL 50kDa MWCO concentrator (cat no.
7.4/150mM NaCl/10% glycerol/1mM DTT was added to the concentrated AMPylation reaction and then spun down again at 14,000 x g at 4C for 5-10 minutes. This step was repeated four times to buffer exchange AMPylated Δ26hBiPT229A.
Δ104hFicDWT and Δ26hBiPT229A-AMP were combined at a ratio of 1:80 in buffer containing 25mM HEPES pH 7.4, 100mM KCl, 5mM MgCl2, 1mM DTT and the indicated small molecule where applicable. Reactions were incubated at 37C for 1 hour and stopped by the addition EDTA. 5X SDS sample buffer (250mM Tris pH 6.8, 10% Lithium dodecyl sulfate, 50% glycerol, 50mM DTT, 0.05% Bromophenol blue) was then added to the reactions and reactions were heated for 5 minutes at […]
For in-vitro AMPylation assays with VopS and CDC42, Δ30VopS and GST-CDC42 – provided by a previous lab member – were combined at a 1:80 molar ratio in 50mM Tris pH 7.4/100mM NaCl/1mM DTT in the presence of GPP or FPP, where applicable. […]
(ITC needs no label: the signal is the heat of the interaction.)

For assay [2], the target named is T1, FicD^L258D. Briefly: Differential scanning fluorimetry (DSF) thermal shift with FicD^L258D. In kind it is binding. As to conditions: FicD^L258D, 5 mM MgCl2; read-out: EC50 of DSF dose-response (ΔTm). The method, then: Differential Scanning Fluorimetry
Thermal shift assays were performed in Biorad CfX384 Touch Real-Time PCR Detection System […]
Reactions contained 50mM HEPES pH 7.4, 200mM NaCl, 200mM KCl, 200uM DTT, 5X Invitrogen Sypro Orange (Cat no. S6650), 8-9μM protein, and indicated nucleotide, cofactor, or small molecule in a total volume of 20uL. For every experiment ‘no protein’ controls were also included with the same reaction conditions. All reactions were performed in technical triplicates. Sealed plates containing reaction mixes were centrifuged for 1-5 min at 1000 RPM prior to temperature scanning (FRET channel), which was performed from 6°C […]
DSF data was analyzed with traditional methods automated in a Python package (https://pypi.org/project/instawell/). Briefly, for each temperature, the RFU values of technical triplicates are averaged. For each timepoint, the background fluorescence was subtracted using the RFU values of the ‘no protein’ control. […]
calculated. The melting temperature (Tm) is defined as the first derivative peak value. Data

“And” between values parts separate entries of the source, which are not always exact repeats. Equal entries are not always repeated. Where two headings read alike, the source gives them in different places.

Take `CC(C)=CCC/C(C)=C/CC/C(C)=C/CO[P@@](=O)(O)OP(=O)(O)O` (stereo in doubt) [FPP, farnesyl-pyrophosphate]: the Kd (commonly a measure of binding affinity in units of concentration) is 32.3 nM on FicD^L258D [1] (read-out: Kd (ITC), Replicate 1); 25.6 nM at FicD^L258D [1] (read-out: Kd (ITC), Replicate 2); 45.2 nM at FicD^L258D [1] (read-out: Kd (ITC), Replicate 3); ~60 nM and 60.3 nM and 60 nM on FicD^L258D [1] (read-out: Kd (ITC), global fitting of triplicate isotherms). Also, at FicD^L258D [2], the EC50 (commonly the concentration that produces a half-maximal response) was 9600 nM.
